Test results taken from patent publication US9518060B2, “Substituted pyrrolo[3,4-c]pyrazoles as PKC kinase inhibitors” (PFIZER INC., priority 2007, dated 2016).

Target: Protein Kinase C beta 2 (PKCβII) (Homo sapiens (Human), UniProt P05771)
Experiment: PKCβII coupled spectrophotometric kinase assay (PK/LDH, NADH absorbance at 340 nm)
Assay type: biochemical
Conditions: apparent Ki, ATP competitive inhibition model (Morrison equation); 0.1 mM ATP, 5 nM PKC, 30° C.; read-out: Ki app
Outline: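 PK/LDH-coupled ADP detection (NADH loss at 340 nm), 20 min at 30° C, pH 7.4; 5 nM PKCβII, 0.15 mM pseudosubstrate peptide, 0.1 mM ATP, with CaCl2, PS and PMA activators, 7.5% DMSO. Apparent Ki from initial velocities fitted to ATP-competitive Morrison model over 10,000–0.169 nM inhibitor.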

Protein Kinase C beta 2 (PKCβII), sequence (P05771 other isoform, or with tags, fused parts or gaps): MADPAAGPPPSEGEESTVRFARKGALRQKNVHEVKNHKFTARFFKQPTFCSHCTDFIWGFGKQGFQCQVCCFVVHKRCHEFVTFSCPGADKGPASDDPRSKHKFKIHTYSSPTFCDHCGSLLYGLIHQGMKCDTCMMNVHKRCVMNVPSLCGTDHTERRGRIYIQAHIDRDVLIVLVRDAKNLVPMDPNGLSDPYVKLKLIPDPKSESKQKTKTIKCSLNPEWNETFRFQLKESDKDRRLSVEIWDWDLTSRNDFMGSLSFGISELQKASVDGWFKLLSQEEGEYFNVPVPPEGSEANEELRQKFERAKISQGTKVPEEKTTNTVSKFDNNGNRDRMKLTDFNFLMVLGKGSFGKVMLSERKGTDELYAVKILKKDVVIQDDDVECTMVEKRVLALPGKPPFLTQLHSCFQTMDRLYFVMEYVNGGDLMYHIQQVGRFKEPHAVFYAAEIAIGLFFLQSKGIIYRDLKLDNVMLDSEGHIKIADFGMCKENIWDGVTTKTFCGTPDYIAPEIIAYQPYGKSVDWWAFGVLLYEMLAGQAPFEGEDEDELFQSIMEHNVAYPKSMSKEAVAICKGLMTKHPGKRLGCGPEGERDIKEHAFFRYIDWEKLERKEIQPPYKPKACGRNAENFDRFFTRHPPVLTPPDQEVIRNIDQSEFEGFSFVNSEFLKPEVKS

With COCCCOc1ncc(F)c(Nc2n[nH]c3c2CN(C(=O)N2CC(C)(C)N(C)C[C@@H]2C)C3(C)C)n1 [Example K9, N-[5-fluoro-2-(3-methoxypropoxy)pyrimidin-4-yl]-6,6-dimethyl-5-{[(2S)-2,4,5,5-tetramethylpiperazin-1-yl]carbonyl}-1,4,5,6-tetrahydropyrrolo[3,4-c]pyrazol-3-amine] as the compound, how does the Ki read?
The Ki was 12.8 nM.

COCCCOc1ncc(F)c(Nc2n[nH]c3c2CN(C(=O)N2C[C@@H](C)N(C)C[C@@H]2C)C3(C)C)n1 [Example K10, N-[5-fluoro-2-(3-methoxypropoxy)pyrimidin-4-yl]-6,6-dimethyl-5-{[(2S,5R)-2,4,5-trimethylpiperazin-1-yl]carbonyl}-1,4,5,6-tetrahydropyrrolo[3,4-c]pyrazol-3-amine] was tested. Which Ki did it give?
Its Ki is 28.4 nM.

COCCOc1ncc(F)c(Nc2n[nH]c3c2CN(C(=O)N2CC(C)(C)N(C)C[C@@H]2C)C3(C)C)n1 [Example K11, N-[5-fluoro-2-(2-methoxyethoxy)pyrimidin-4-yl]-6,6-dimethyl-5-{[(2S)-2,4,5,5-tetramethylpiperazin-1-yl]carbonyl}-1,4,5,6-tetrahydropyrrolo[3,4-c]pyrazol-3-amine] was tested. Which Ki did it give?
Its Ki is 42.7 nM.

With COCCOc1ncc(F)c(Nc2n[nH]c3c2CN(C(=O)N2C[C@@H](C)N(C)C[C@@H]2C)C3(C)C)n1 [Example K12, N-[5-fluoro-2-(2-methoxyethoxy)pyrimidin-4-yl]-6,6-dimethyl-5-{[(2S,5R)-2,4,5-trimethylpiperazin-1-yl]carbonyl}-1,4,5,6-tetrahydropyrrolo[3,4-c]pyrazol-3-amine] as the compound, how does the Ki read?
The Ki was 15.2 nM.

Which Ki does the source give for CCOc1ncc(F)c(Nc2n[nH]c3c2CN(C(=O)N2C[C@H](C)N(C)C[C@@H]2C)C3(C)C)n1 [Example K13, 2(S),5(S)-{[dimethyl-4-methylpiperazin-1-yl]carbonyl}-N-(5-fluoro-2-ethoxypyrimidin-4-yl)-6,6-dimethyl-1,4,5,6-tetrahydropyrrolo[3,4-c]pyrazol-3-amine] here?
Its Ki is 26.5 nM.

With CCOc1ncc(F)c(Nc2n[nH]c3c2CN(C(=O)N2CCN4CCC[C@@H]4C2)C3(C)C)n1 [Example K14, [3-(2-Ethoxy-5-fluoro-pyrimidin-4yl-amino)-6,6-dimethyl-4,6-dihydro-1H-pyrrolo[3,4-c]pyrazol-5-yl]-(R)-hexahydro-pyrrolo[1,2-a]pyrazin-2-yl-methanone] as the compound, how does the Ki read?
The Ki was 71.7 nM.

CCOc1ncc(F)c(Nc2n[nH]c3c2CN(C(=O)N2C[C@]4(C)CCCN4C[C@@H]2C)C3(C)C)n1 [Example K15, 5-{[(3S,8aS)-3,8a-dimethylhexahydropyrrolo[1,2-a]pyrazin-2(1H)-yl]carbonyl}-N-(2-ethoxy-5-fluoropyrimidin-4-yl)-6,6-dimethyl-1,4,5,6-tetrahydropyrrolo[3,4-c]pyrazol-3-amine] was tested. Which Ki did it give?
Its Ki is 11.2 nM.

Which Ki does the source give for CCOc1ncc(F)c(Nc2n[nH]c3c2CN(C(=O)N2CCN(C)[C@H](C)C2)C3(C)C)n1 [Example K17, 5-{[(3R)-3,4-dimethylpiperazin-1-yl]carbonyl}-N-(2-ethoxy-5-fluoropyrimidin-4-yl)-6,6-dimethyl-1,4,5,6-tetrahydropyrrolo[3,4-c]pyrazol-3-amine] here?
The Ki was 44.4 nM.

For CCOc1ncc(F)c(Nc2n[nH]c3c2CN(C(=O)N2C[C@@H](C)N(CCC(F)(F)F)C[C@@H]2C)C3(C)C)n1 [Example K18, 5-{[(2S,5R)-2,5-dimethyl-4-(3,3,3-trifluoropropyl)piperazin-1-yl]carbonyl}-N-(2-ethoxy-5-fluoropyrimidin-4-yl)-6,6-dimethyl-1,4,5,6-tetrahydropyrrolo[3,4-c]pyrazol-3-amine], which Ki is on record?
The Ki was 25.3 nM.

How did the Ki turn out when CCOc1ncc(F)c(Nc2n[nH]c3c2CN(C(=O)N2C[C@@H](C)N(CC4CCOCC4)C[C@@H]2C)C3(C)C)n1 [Example K19, 5-{[(2S,5R)-2,5-dimethyl-4-(tetrahydro-2H-pyran-4-ylmethyl)piperazin-1-yl]carbonyl}-N-(2-ethoxy-5-fluoropyrimidin-4-yl)-6,6-dimethyl-1,4,5,6-tetrahydropyrrolo[3,4-c]pyrazol-3-amine] was run?
Its Ki is less than 10 nM.

Which Ki does the source give for CCOc1ncc(F)c(Nc2n[nH]c3c2CN(C(=O)N2C[C@@H]4CCCN4C[C@@H]2C(C)C)C3(C)C)n1 [Example K20, N-(2-ethoxy-5-fluoropyrimidin-4-yl)-5-{[(3S,8aS)-3-isopropylhexahydropyrrolo[1,2-a]pyrazin-2(1H)-yl]carbonyl}-6,6-dimethyl-1,4,5,6-tetrahydropyrrolo[3,4-c]pyrazol-3-amine] here?
The Ki was 26 nM.

Which Ki does the source give for CCOc1ncc(F)c(Nc2n[nH]c3c2CN(C(=O)N2C[C@@H](C)N(C4CCOCC4)C[C@@H]2C)C3(C)C)n1 [Example K21, 5-{[(2S,5R)-2,5-dimethyl-4-(tetrahydro-2H-pyran-4-yl)piperazin-1-yl]carbonyl}-N-(2-ethoxy-5-fluoropyrimidin-4-yl)-6,6-dimethyl-1,4,5,6-tetrahydropyrrolo[3,4-c]pyrazol-3-amine] here?
The Ki was less than 10 nM.

Which Ki does the source give for CCOc1ncc(F)c(Nc2n[nH]c3c2CN(C(=O)N2C[C@@H](C)N(CC4(O)CCOCC4)C[C@@H]2C)C3(C)C)n1 [Example K22, 4-[((2R,5S)-4-{[3-[(2-ethoxy-5-fluoropyrimidin-4-yl)amino]-6,6-dimethyl-4,6-dihydropyrrolo[3,4-c]pyrazol-5(1H)-yl]carbonyl}-2,5-dimethylpiperazin-1-yl)methyl]tetrahydro-2H-pyran-4-ol] here?
Its Ki is 15.3 nM.

Which Ki does the source give for CCOc1ncc(F)c(Nc2n[nH]c3c2CN(C(=O)N2CC(CCO)N(C)C[C@@H]2C)C3(C)C)n1 (stereo partly drawn) [Example K23, 2-((5S)-4-{[3-[(2-ethoxy-5-fluoropyrimidin-4-yl)amino]-6,6-dimethyl-4,6-dihydropyrrolo[3,4-c]pyrazol-5(1H)-yl]carbonyl}-1,5-dimethylpiperazin-2-yl)ethanol] here?
The Ki was less than 10 nM.

Which Ki does the source give for CCOc1ncc(F)c(Nc2n[nH]c3c2CN(C(=O)C2(F)CCN(C)CC2)C3(C)C)n1 [Example L1, N-(2-ethoxy-5-fluoropyrimidin-4-yl)-5-[(4-fluoro-1-methylpiperidin-4-yl)carbonyl]-6,6-dimethyl-1,4,5,6-tetrahydropyrrolo[3,4-c]pyrazol-3-amine] here?
The Ki was 16.8 nM.

How did the Ki turn out when COCCOc1ncc(F)c(Nc2n[nH]c3c2CN(C(=O)C2(F)CCN(C)CC2)C3(C)C)n1 [Example L2, N-[5-fluoro-2-(2-methoxyethoxy)pyrimidin-4-yl]-5-[(4-fluoro-1-methylpiperidin-4-yl)carbonyl]-6,6-dimethyl-1,4,5,6-tetrahydropyrrolo[3,4-c]pyrazol-3-amine] was run?
Its Ki is 168 nM.

With COCCCOc1ncc(F)c(Nc2n[nH]c3c2CN(C(=O)C2(F)CCN(C)CC2)C3(C)C)n1 [Example L3, N-[5-fluoro-2-(3-methoxypropoxy)pyrimidin-4-yl]-5-[(4-fluoro-1-methylpiperidin-4-yl)carbonyl]-6,6-dimethyl-1,4,5,6-tetrahydropyrrolo[3,4-c]pyrazol-3-amine] as the compound, how does the Ki read?
The Ki was 58.6 nM.

With CN1CCC(F)(C(=O)N2Cc3c(Nc4nc(OCC(F)(F)F)ncc4F)n[nH]c3C2(C)C)CC1 [Example L4, 5-[(4-fluoro-1-methylpiperidin-4-yl)carbonyl]-N-[5-fluoro-2-(2,2,2-trifluoroethoxy)pyrimidin-4-yl]-6,6-dimethyl-1,4,5,6-tetrahydropyrrolo[3,4-c]pyrazol-3-amine] as the compound, how does the Ki read?
The Ki was 1.71 nM.

Which Ki does the source give for CCOc1ncc(F)c(Nc2n[nH]c3c2CN(C(=O)C2CCN(CCC(F)(F)F)CC2)C3(C)C)n1 [Example L5, N-(2-ethoxy-5-fluoropyrimidin-4-yl)-6,6-dimethyl-5-{[1-(3,3,3-trifluoropropyl)piperidin-4-yl]carbonyl}-1,4,5,6-tetrahydropyrrolo[3,4-c]pyrazol-3-amine] here?
The Ki was 129 nM.

Which Ki does the source give for CCOc1ncc(F)c(Nc2n[nH]c3c2CN(C(=O)C2CCN(C4CCOCC4)CC2)C3(C)C)n1 [Example L6, N-(2-ethoxy-5-fluoropyrimidin-4-yl)-6,6-dimethyl-5-{[1-(tetrahydro-2H-pyran-4-yl)piperidin-4-yl]carbonyl}-1,4,5,6-tetrahydropyrrolo[3,4-c]pyrazol-3-amine] here?
Its Ki is 181 nM.

How did the Ki turn out when CCOc1ccnc(Nc2n[nH]c3c2CN(C(=O)N2C[C@@H](C)N(C)C[C@@H]2C)C3(C)C)n1 [Example M1, N-(4-ethoxypyrimidin-2-yl)-6,6-dimethyl-5-{[(2S,5R)-2,4,5-trimethylpiperazin-1-yl]carbonyl}-1,4,5,6-tetrahydropyrrolo[3,4-c]pyrazol-3-amine] was run?
The Ki was 4.24 nM.

With CCOc1ccnc(Nc2n[nH]c3c2CN(C(=O)N2C[C@@H](C)N(CCCOC)C[C@@H]2C)C3(C)C)n1 [Example M2, N-(4-ethoxypyrimidin-2-yl)-5-{[(2S,5R)-4-(3-methoxypropyl)-2,5-dimethylpiperazin-1-yl]carbonyl}-6,6-dimethyl-1,4,5,6-tetrahydropyrrolo[3,4-c]pyrazol-3-amine] as the compound, how does the Ki read?
Its Ki is 16.1 nM.

For COCc1ncc(F)c(Nc2n[nH]c3c2CN(C(=O)N2C[C@@H](C)N(CC4CCOCC4)C[C@@H]2C)C3(C)C)n1 [Example N1, 5-{[(2S,5R)-2,5-dimethyl-4-(tetrahydro-2H-pyran-4-ylmethyl)piperazin-1-yl]carbonyl}-N-[5-fluoro-2-(methoxymethyl)pyrimidin-4-yl]-6,6-dimethyl-1,4,5,6-tetrahydropyrrolo[3,4-c]pyrazol-3-amine], which Ki is on record?
Its Ki is less than 10 nM.
